Experimental findings from patent publication US10702527B2, “Combination therapy of transcription inhibitors and kinase inhibitors” (Dana-Farber Cancer Institute, Inc., priority 2015, dated 2020) are described below.

Test [1] concerns RT112 bladder carcinoma cells (FGFR3-dependent). Briefly: Colony formation assay in RT112 cells. The class given is cell-based, human. Conditions: for colony formation, transcription inhibitor alone or in combination with BGJ398: one week, 24-well plate (FIG. 35); for colony formation: 4 weeks, crystal violet staining, relative to control. From the text: Media (and drug) were replaced weekly.

In test [2] the test system is gene expression in RT112 cells. Briefly: RNA-Seq gene expression in RT112 cells. Particulars: for gene expression (transcriptional programs) by RNAseq: BGJ398 1 μM, THZ1 100 nM, one or seven days. The class given is cell-based, human.
Method: (§3) RNA was isolated from untreated RT112 cells and RT112 cells treated with 1 μM BGJ398, 100 nM THZ1, or combination treatment with THZ1 plus BGJ398, and similarly, untreated PC9 cells and PC9 cells treated with 1 μM erlotinib, 100 nM THZ1, or THZ1 plus erlotinib. Both cell lines were harvested at two time-points: following one day or seven days of treatment. Cell number was determined and total RNA was isolated using the RNeasy micro kit (Qiagen). Ambion® ERCC RNA Spike-In Mix (Life technology) was added to total RNA. cDNA libraries were prepared using the NEBNext® Ultra™ RNA Library Prep Kit for Illumina (New England Biolabs) according to the manufacturer's instructions. Library integrity was assessed on an Agilent 2100 Bioanalyzer (Agilent). Sequencing was performed on the Hiseq 2000 platform (Illumina) to a minimum depth of 30 million reads per sample.
(§4) QC-passed reads were aligned to the human reference genome (hg19) using PRADA.^46 Transcript per million (TPM) values were determined using RSEM.^47 TPM values were normalized with the voom transformation.^48 Expression changes for each gene in treated cells compared to untreated controls was determined using the limma package^49 as log 2-transformed fold change and a multiple-testing adjusted p-value. Heatmap visualization was performed using R. Log 2-transformed fold changes were not scaled and were colored on a blue-red scale.
(§5) Differentially expressed genes (defined as log 2-fold change value greater than 1.5 or less than −1.5, and p-value less than 0.01) were input into Ingenuity Pathway Analysis (www.ingenuity.com), to identify a) enriched pathways, 2) upstream regulators, andd 3) downstream effectors. […] We considered an activation z-score of greater than [2] to be activated, and less than [−2] to be inhibited. Gene ontology term (GO-term) enrichment analysis was performed using the Database for Annotation, Visualization and Integrated Discovery (DAVID) v6.7 (david.abcc.ncifcrf.gov/).
The test system of test [3] is H3K27Ac enhancer signal in RT112 cells. Briefly: H3K27Ac ChIP-Seq in RT112 cells. The class given is cell-based, human. Particulars: seven days of treatment, vs DMSO. Here is the method:
RT112 and PC9 cells treated for seven days with vehicle, 1 μM BGJ398 and erlotinib (respectively), 100 nM THZ1, or BGJ398/erlotinib in combination with THZ1. H3K27Ac ChIP-Seq was performed using Abcam antibody (cat # AB4729, lot # GR183922-1) as previously described,^8 with minor modifications (cells were crosslinked for 20 min, Dynal magnetic beads (Sigma) were bound with 10 μg of the indicated antibody).
Illumina sequencing libraries were generated and data was processed as described elsewhere.^50 In brief, libraries were generated for ChIP samples following the Illumina TruSeq™ DNA Sample Preparation v2 kit protocol with minor changes. All ChIP-Seq data sets were aligned using bowtie 1.0.1 to build […] of the human genome with -p 4—best -k 2 -m 2—sam -1 40. Wiggle files for gene tracks were created using Macs 1.4.2 with options -w -S -space=50 to count reads in 50 bp bins.
Regions enriched in H3K27Ac were identified using SICER^51 with corresponding input DNA control, and parameters -t 1 (max 1 read per position), -w 200 (window size 200), -i 150 (fragment size), -g 200 (gap size 200; 1 window), -t 0.74 (interrogable genome fraction), -e 200 (e-value), -p 1e-9 (significance p value cutoff). […]
Density of H3K27Ac ChIP-Seq signal (FIG. 51F) was calculated using bamToGFF (github.com/BradnerLab/pipeline). […]

The subject of a further test is RT112 cells. Briefly: Resistance emergence in RT112 cells under BGJ398 treatment (FIG. 1). The class given is cell-based, human. From the text:
One mechanism of resistance may be through the upregulation of NRG1 due to signaling via ERBB2/ERBB3 and is rapid (a matter of days) and reversible (Wang et al., Oncogene, 2015, 34(17):2167-77). The resistance may also be associated with EMT.

The subject of test [4] is EGFR-T790M-L858R; p53-R172H lung tumors. The class given is in vivo. Conditions: TLP mice. From the text:
Mice (both male and female) bred to contain conditional EGFR-T790M-L858R lox-stop-lox (LSL) allele and the p53-dominant negative R172H LSL allele to a final genotype of EGFR-T790M-L858R^LSL/−; p53-R172H^LSL/− maintained on a mixed background, were induced at 6 weeks of age with Adenovirus-Cre recombinase by intranasal administration^45 to allow for mediated recombination of lox-stop-lox modified mutant-EGFR and p53 alleles. […] Mice were imaged using a 7 Tesla BioSpec (Bruker Biospin) optimized for image requisition of pulmonary parenchyma and vessels in mice. Animals were anesthetized with 2% isoflurane IsoFlo; Abbott) in 100% oxygen via a nose cone. Respiratory and cardiac gating was applied to minimize motion artifacts during imaging. 24 slices (1 mm) were collected. Tumor volume per animal was quantified manually, based on a minimum of eight consecutive axial image sequences, using the 3D Slicer. […] Investigators were not blinded to group allocation. Mice were imaged biweekly by MRI until end-stage disease to determine tumor volume. Mice weights and signs of toxicity were monitored daily during the course of treatment. End-stage disease was reached when animals acquired clinical symptoms secondary to their lung tumors, in accordance with Dana Farber Cancer Institute Animal Care and Use Committee regulations.

Test [5] has as its system A549 cells (KRAS-mutant NSCLC). Particulars: 4 weeks, crystal violet staining. Here is the method: 100,000 cells were seeded in 6-well plates, allowed to adhere overnight, and then incubated with media containing vehicle or drug as indicated for 4 weeks. Media (and drug) were replaced weekly. At 4 weeks plates were, fixed with 1% paraformaldehyde, and then stained with 0.1% crystal violet as previously described (medicine.yale.edu/lab/kim/resources/protocols/cell/crystal- violet_stain.aspx) to assess colony formation. Results were quantified using an ImageJ Colony Area PlugIn.^44

Test [6] deals with gene expression in PC9 cells. Kind of test: RNA-Seq gene expression in PC9 cells. Particulars: erlotinib 1 μM, THZ1 100 nM, one or seven days.
Method: as §3, §4, §5
For test [7], the system named is signaling pathways in PC9 cells. Briefly: Western blot / immunoblot of signaling pathways in PC9 cells. The format is cell-based. Particulars: 24 hours, erlotinib 1 μM, THZ1 100 nM. Here is the method: (§1) Cells were lysed in RIPA buffer (Roche) containing protease inhibitors (Roche) and Phosphatase Inhibitor Cocktails I and II (CalBioChem). Protein concentrations were determined using a Bradford assay (Bio-Rad). Proteins were separated by SDS gel electrophoresis using NuPAGE 4-12% Bis-Tris gels (Life Technologies) in MOPS buffer. Resolved protein was transferred to nitrocellulose membranes, blocked in 10% milk and probed with primary antibodies recognizing EGFR (2232S), p-EGFR (2234S), FGFR3 (4574S), p-FGFR (3471S), HER2/ERBB2 (2165), p-ERBB2 (2243S), STAT1 (9172), p-STAT1 (9167), STAT3 (4904S), p-STAT3 (9145S), AKT (9272S), p-AKT (4060P), ERK (4695S), p-ERK (4370S), FRA1 (5281S), CDK12 (11973) (all from Cell Signaling Technology), CDK7 (sc-723, Santa Cruz), actin (A5441, Sigma-Aldrich) and vinculin (V9131, Sigma-Aldrich) in 5% milk or 3% bovine serum albumin as recommended by the manufacturer. After incubation with the appropriate secondary antibody (Pierce anti-mouse IgG/IgM (31444, Thermo Scientific) and anti-rabbit IgG (31460, Thermo Scientific)), blots were imaged on film.
Western blots were used to characterize the signaling pathways in selected cell lines. The assays were performed at 24 hours under the following conditions: untreated, treated with 1 μM erlotinib, treated with 100 nM THZ1, or treated with a combination of erlotinib and THZ1, in PC9 and RT112 cells. These doses were also used in the colony formation assays and the RNAseq and ChIPseq experiments. […] However, it could be blocking the activation of downstream STAT3 targets. […] FGFR is known to be a bypass mechanism in PC9, but this was not seen with THZ1 treatment or with the combination treatment. […] This is unexpected, given that THZ1 should block CDK7-mediated RNAPII phosphorylation. This may be due to the dose or the time point assayed.

Test [8] deals with signaling pathways in H23 cells. Kind of test: Western blot / immunoblot of signaling pathways in H23 cells. Conditions: 24 hours. The format is cell-based. Here is the method:
as §1
(§2) These two lines were both shown in Sharma et al. (Cell, 2010, 141(1):69-80) to employ the STAT3 feedback loop. p-ERK was decreased in the combination treatment arm. […] Therefore, there are some generalizable findings across the four lines.

Test [9] deals with signaling pathways in RT112 cells. Briefly: Western blot / immunoblot of signaling pathways in RT112 cells. The format is cell-based, human. Particulars: 24 hours. Here is the method: as §1
Western blots were used to characterize the signaling pathways in selected cell lines. […] These doses were also used in the colony formation assays and the RNAseq and ChIPseq experiments. […] However, it could be blocking the activation of downstream STAT3 targets. […] FGFR is known to be a bypass mechanism in PC9, but this was not seen with THZ1 treatment or with the combination treatment. […] This is unexpected, given that THZ1 should block CDK7-mediated RNAPII phosphorylation. This may be due to the dose or the time point assayed.

The subject of another test is IL-6. Kind of test: IL-6 in PC9 cell culture supernatants (Luminex cytokine assay, ELISA). Particulars: PC9 cells; erlotinib 1 μM, THZ1 100 nM; 24 and 72 hours. The class given is cell-based. Here is the method:
A Luminex Multiplex Custom Cytokine assay was used to assay cytokines in RT112 and PC9 cell culture supernatants treated with vehicle, 1 μM BGJ398 or erlotinib respectively, 100 nM THZ1, or THZ1 in combination with BGJ398 or erlotinib, at 24 and 72 hours. Cytokines assayed for were: CCL2/MCP-1, CCL5/RANTES, CXLC5, IL-1 alpha and beta, IL-2, IL-4, IL-5, IL-6, IL-8, IL-10, IL-17a, GM-CSF, TNF-alpha, VEGF, INF-gamma. IL-6 was also assayed in cell culture supernatants using the Quantikine IL-6 ELISA kit (D6050, R&D Systems) as per the manufacturer's protocol.

Test [10] has as its system signaling pathways in A549 cells. Kind of test: Western blot / immunoblot of signaling pathways in A549 cells. The format is cell-based. Conditions: 24 hours. Here is the method: as §1, §2

Entries after “also recorded” stand apart in the source; their conditions may differ.

Regarding `C=CC(=O)Nc1cccc(Nc2cc(N3CCCCC3CCO)nc3c(CC)cnn23)c1` (stereo not drawn) [E9], the “colony formation, transcription inhibitor alone or in combination with BGJ398” value in [1] is on record as “works as well as THZ1”.
Turning to `CCN1CCN(c2ccc(Nc3cc(N(C)C(=O)Nc4c(Cl)c(OC)cc(OC)c4Cl)ncn3)cc2)CC1` [BGJ398], the “gene expression (transcriptional programs) by RNAseq” value in [2] was “transcriptionally distinct from the parental population; also recorded: up-regulated the expression of genes involved in pro-survival programs”. Also, the “gene expression of the top 200 up-regulated genes with BGJ398 treatment” value in test [2] (log2-normalized FPKM, two-tailed t-test) is listed as “significant increase in gene expression”. Moreover, in test [1], the colony formation entry is given as “comparable to control”. Also, the “H3K27Ac ChIP-Seq signal at enhancers” value in test [3] is on record as “significant increase in H3K27Ac signal”. Also, in the test on RT112 cells, the resistance emergence entry is on record as “led to resistance emergence”.
As for `C=CC(=O)Nc1cccc(Oc2nc(Nc3ccc(N4CCN(C)CC4)cc3OC)ncc2Cl)c1` [WZ4002], the “time to end-stage disease” value in test [4] is recorded as “end-stage disease by five weeks”. In [4] (WZ4002 50 mg/kg QD oral gavage), the “tumor response by MRI at two weeks” value was “initial response”. Also, the “tumor response by MRI at four weeks” value in [4] (WZ4002 50 mg/kg QD oral gavage, THZ1 10 mg/kg BID i.p.) is “rapidly developed resistance and rebounded”.
As to `C[C@@H](Oc1cc(-c2cnn(C3CCNCC3)c2)cnc1N)c1c(Cl)ccc(F)c1Cl` [crizotinib], the colony formation result in test [5] is reported as “ineffective”.
For `C[C@H](CCC(=O)O)[C@H]1CC[C@H]2[C@@H]3CC[C@@H]4C[C@H](O)CC[C@]4(C)[C@H]3C[C@H](O)[C@]12C` [DCA], the “colony formation, transcription inhibitor alone or in combination with BGJ398” value in test [1] is given as “modest results, even in combination”.
As to `CN(C)C/C=C/C(=O)Nc1ccc(C(=O)Nc2cccc(Nc3ncc(Cl)c(-c4c[nH]c5ccccc45)n3)c2)cc1` [THZ1], the “gene expression (transcriptional programs) by RNAseq” value in test [6] and in test [2] was “attenuation of these programs” in each case. Moreover, the FRA1 protein levels result in [7] is recorded as “nor did it restore FRA1 levels”; in test [9] (BGJ398 1 μM, THZ1 100 nM), “nor did it restore FRA1 levels”. Moreover, the RNAPII phosphorylation result in test [7] is given as “increase in RNAPII phosphorylation”; in test [8] it was “again increased”; in test [9] it was “increase in RNAPII phosphorylation”; in test [10], “again increased”. The STAT1 phosphorylation entry was “blocked STAT1 phosphorylation” in test [7] and “blocked STAT1 phosphorylation” in test [9] (BGJ398 1 μM, THZ1 100 nM). In test [7] (alone or combined), the FGFR activation entry is on record as “not seen; also recorded: blocked”. In addition, the “p-STAT3 (STAT3 phosphorylation/activation)” value in test [7] (alone or combined) is on record as “does not inhibit the feedback activation of STAT3; also recorded: not blocking the activation of p-STAT3; also recorded: did not affect the phosphorylation status of STAT3”; in test [9] (BGJ398 1 μM, THZ1 100 nM, alone or combined) it was “does not inhibit the feedback activation of STAT3; also recorded: did not affect the phosphorylation status of STAT3; also recorded: not blocking the activation of p-STAT3”. The colony formation entry in test [1] is listed as “comparable to control”. Besides, the ERBB2 activation entry in test [9] is recorded as “blocked ERBB2 activation”. In addition, the “IL-6 levels in cell culture supernatants” value in the test on IL-6 was “suppressed the increase in IL-6 levels”.
